This data set in a line: Henry solubility constant Hcp at 298.15 K (mol/(m3 Pa)).
The mark [1] stands for this setting: reference: Roberts and Pollien (1997).
The mark [2] stands for this setting: reference: Amoore and Buttery (1978).
Where [3] appears, read: reference: Butler et al. (1935).
Where [4] appears, read: reference: Murphy et al. (1983a).
Setting [5] is: reference: Cetin and Odabasi (2005).
Setting [6] is: reference: Charles and Destaillats (2005).
The mark [7] stands for this setting: reference: Rochester and Symonds (1973).

For `C=CC(O)CCCCC` (stereo not given) [1-octen-3-ol], the “Henry solubility constant Hcp” value runs as follows: (reference: Druaux et al. (1998)) 0.25; under setting [1], 0.13; (reference: Wu et al. (2022a)) 0.19.

Regarding `C1COCCN1` [1-oxa-4-azacyclohexane], under “reference: Nguyen (2013)”, the “Henry solubility constant Hcp” value came to 190.

On to `CCCCCN` [1-pentanamine], for which the “Henry solubility constant Hcp” value under setting [2] is 0.31; the “Henry solubility constant Hcp” value (reference: Christie and Crisp (1967)) was determined as 0.4.

As to `CCCCCO` [1-pentanol], the “Henry solubility constant Hcp” value by setting is: under setting [3], 0.78; (reference: Gupta et al. (2000)) 0.95; (reference: Lei et al. (2007)) 0.75; (reference: Shunthirasingham et al. (2013)) 0.81.

Take `CCCCCO[N+](=O)[O-]` [1-pentyl nitrate]: for the setting “reference: Hauff et al. (1998)”, the “Henry solubility constant Hcp” value came out at 0.0066.

As for `CC(=O)c1ccccc1` [1-phenylethanone], the “Henry solubility constant Hcp” value was determined as 0.97 (reference: Allen et al. (1998)) and 1.1 (reference: Betterton (1991)).

With `CCCS` [1-propanethiol], the “Henry solubility constant Hcp” value worked out at 0.0017 (reference: Coquelet and Richon (2005)); 0.0018 (reference: Haimi et al. (2006)).

For the molecule `CCCO` [1-propanol], the “Henry solubility constant Hcp” value by setting is: (reference: Burnett (1963)) 1.6; under setting [3], 1.4; (reference: Gupta et al. (2000)) 1.2; (reference: Richon et al. (1985)) 1.8; (reference: Snider and Dawson (1985)) 1.3; (reference: Straver and de Loos (2005)) 1.5. Also, under “reference: Vitenberg and Dobryakov (2008)”, the “Henry solubility constant Hcp” value was 1.5.

As for `C1=NCCC1` [1-pyrroline], the “Henry solubility constant Hcp” value under setting [2] amounted to 1.6.

On to `OCCC(F)(F)C(F)(F)C(F)(F)C(F)(F)C(F)(F)C(F)(F)F` [1H,1H,2H,2H-perfluoro-1-octanol], for which the “Henry solubility constant Hcp” value by setting is: (reference: Goss et al. (2006)) 0.0015; (reference: Lei et al. (2004)) 8.5e-05; (reference: Wu and Chang (2011)) 0.00017.

Regarding `OCCC(F)(F)C(F)(F)C(F)(F)C(F)(F)C(F)(F)C(F)(F)C(F)(F)C(F)(F)F` [1H,1H,2H,2H-perfluorodecan-1-ol], the “Henry solubility constant Hcp” value stood at 0.00017 (reference: Lei et al. (2004)); 0.0002 (reference: Wu and Chang (2011)).

With `OCCC(F)(F)C(F)(F)C(F)(F)C(F)(F)F` [1H,1H,2H,2H-perfluorohexan-1-ol], the “Henry solubility constant Hcp” value is, setting by setting: (reference: Goss et al. (2006)) 0.013; (reference: Lei et al. (2004)) 6.1e-05; (reference: Wu and Chang (2011)) 0.0066.

For `Clc1ccc(-c2c(Cl)c(Cl)cc(Cl)c2Cl)c(Cl)c1Cl` [2,2',3,3',4,5',6'-heptachlorobiphenyl], the “Henry solubility constant Hcp” value under setting [4] is 0.0045.

Turning to `Clc1cccc(-c2ccc(Cl)c(Cl)c2Cl)c1Cl` [2,2',3,3',4-pentachlorobiphenyl], under setting [4], the “Henry solubility constant Hcp” value was found to be 0.049.

As for `Clc1cc(Cl)c(-c2c(Cl)ccc(Cl)c2Cl)cc1Cl` [2,2',3,4',5',6-hexachlorobiphenyl], under setting [4], the “Henry solubility constant Hcp” value was 0.033.

On to `Clc1cc(Cl)c(-c2c(Cl)cc(Cl)c(Cl)c2Cl)cc1Cl` [2,2',3,4,4',5',6-heptachlorobiphenyl], for which the “Henry solubility constant Hcp” value under setting [4] was found to be 0.016.

As for `Clc1ccc(-c2cc(Cl)c(Cl)c(Cl)c2Cl)c(Cl)c1` [2,2',3,4,4',5-hexachlorobiphenyl], under setting [4], the “Henry solubility constant Hcp” value is 0.021.

In the case of `Clc1ccc(Cl)c(-c2c(Cl)cc(Cl)c(Cl)c2Cl)c1` [2,2',3,4,5',6-hexachlorobiphenyl], the “Henry solubility constant Hcp” value under setting [4] stood at 0.016.

As for `Clc1ccc(Cl)c(-c2cc(Cl)c(Cl)c(Cl)c2Cl)c1` [2,2',3,4,5,5'-hexachlorobiphenyl], under setting [4], the “Henry solubility constant Hcp” value was found to be 0.025.

For the molecule `Clc1ccc(Cl)c(-c2cccc(Cl)c2Cl)c1` [2,2',3,5'-tetrachlorobiphenyl], under setting [4], the “Henry solubility constant Hcp” value worked out at 0.041.

Turning to `Brc1cc(Br)c(Oc2cc(Br)c(Br)cc2Br)cc1Br` [2,2',4,4',5,5'-hexabromodiphenyl ether], the “Henry solubility constant Hcp” value runs as follows: under setting [5], 3.5; (reference: Long et al. (2017)) 3.7.

As to `Clc1cc(Cl)c(-c2cc(Cl)c(Cl)cc2Cl)cc1Cl` [2,2',4,4',5,5'-hexachlorobiphenyl], under setting [4], the “Henry solubility constant Hcp” value amounted to 0.028.

As to `Brc1cc(Br)c(Oc2cc(Br)c(Br)cc2Br)c(Br)c1` [2,2',4,4',5,6'-hexabromodiphenyl ether], the “Henry solubility constant Hcp” value under setting [5] is 7.3 and the “Henry solubility constant Hcp” value (reference: Long et al. (2017)) stood at 7.1.

For `Brc1ccc(Oc2cc(Br)c(Br)cc2Br)c(Br)c1` [2,2',4,4',5-pentabromodiphenyl ether], the “Henry solubility constant Hcp” value under setting [5] stood at 1.5, the “Henry solubility constant Hcp” value under setting [6] was determined as 0.27 and the “Henry solubility constant Hcp” value (reference: Long et al. (2017)) is 1.5.

Regarding `Clc1ccc(-c2cc(Cl)c(Cl)cc2Cl)c(Cl)c1` [2,2',4,4',5-pentachlorobiphenyl], the “Henry solubility constant Hcp” value under setting [6] worked out at 0.0088.

As for `Brc1ccc(Oc2c(Br)cc(Br)cc2Br)c(Br)c1` [2,2',4,4',6-pentabromodiphenyl ether], the “Henry solubility constant Hcp” value worked out at 3.8 under setting [5], 0.19 under setting [6] and 3.6 (reference: Long et al. (2017)).

Turning to `Brc1ccc(Oc2ccc(Br)cc2Br)c(Br)c1` [2,2',4,4'-tetrabromodiphenyl ether], the “Henry solubility constant Hcp” value by setting is: under setting [5], 0.87; under setting [6], 0.17; (reference: Long et al. (2017)) 0.91.

Turning to `Clc1ccc(-c2cc(Cl)ccc2Cl)c(Cl)c1` [2,2',4,5'-tetrachlorobiphenyl], the “Henry solubility constant Hcp” value under setting [4] was 0.049.

In the case of `Clc1ccc(Cl)c(-c2cc(Cl)ccc2Cl)c1` [2,2',5,5'-tetrachlorobiphenyl], the “Henry solubility constant Hcp” value under setting [4] was 0.045.

Take `Clc1ccc(Cl)c(-c2ccccc2Cl)c1` [2,2',5-trichlorobiphenyl]: the “Henry solubility constant Hcp” value under setting [4] worked out at 0.049.

For `Clc1ccccc1-c1c(Cl)cccc1Cl` [2,2',6-trichlorobiphenyl], the “Henry solubility constant Hcp” value under setting [4] was 0.047.

With `Clc1ccccc1-c1ccccc1Cl` [2,2'-dichlorobiphenyl], the “Henry solubility constant Hcp” value under setting [4] was 0.045.

For the molecule `OCC(F)(F)F` [2,2,2-trifluoroethanol], the “Henry solubility constant Hcp” value is, setting by setting: (reference: Chen et al. (2003)) 0.47; under setting [7], 0.58.

Turning to `CC(=O)OCC(F)(F)F` [2,2,2-trifluoroethyl ethanoate], the “Henry solubility constant Hcp” value (reference: Kutsuna et al. (2004)) stood at 0.0057.

As for `O=COCC(F)(F)F` [2,2,2-trifluoroethyl methanoate], the “Henry solubility constant Hcp” value (reference: Kutsuna et al. (2005)) was 0.0054.

In the case of `OCC(F)(F)C(F)(F)F` [2,2,3,3,3-pentafluoro-1-propanol], the “Henry solubility constant Hcp” value reads like this: (reference: Chen et al. (2003)) 0.14; under setting [7], 0.45.

`OCC(F)(F)C(F)F` [2,2,3,3-tetrafluoro-1-propanol]: the “Henry solubility constant Hcp” value is, setting by setting: (reference: Chen et al. (2003)) 1.4; under setting [7], 1.6.

Turning to `FC(F)(F)C(Cl)Cl` [2,2-dichloro-1,1,1-trifluoroethane], the “Henry solubility constant Hcp” value reads like this: (reference: Chang and Criddle (1995)) 0.00032; (reference: Kutsuna (2013)) 0.00023.

In the case of `CC(C)(Cl)Cl` [2,2-dichloropropane], the “Henry solubility constant Hcp” value (reference: Bakierowska and Trzeszczyński (2003)) was 0.00081.

Turning to `Clc1ccc(-c2ccccc2Cl)cc1Cl` [2,3',4'-trichlorobiphenyl], the “Henry solubility constant Hcp” value by setting is: under setting [4], 0.066; (reference: Westcott et al. (1981)) 0.025.

Consider `Clc1ccc(-c2cc(Cl)c(Cl)cc2Cl)cc1Cl` [2,3',4,4',5-pentachlorobiphenyl], for which the “Henry solubility constant Hcp” value was 0.018 under setting [6] and 0.025 under setting [4].

`Clc1cccc(-c2ccc(Cl)cc2Cl)c1` [2,3',4-trichlorobiphenyl]: under setting [4], the “Henry solubility constant Hcp” value was determined as 0.062.

As for `Clc1cccc(-c2ccccc2Cl)c1` [2,3'-dichlorobiphenyl], under setting [4], the “Henry solubility constant Hcp” value is 0.047.

For the molecule `Clc1ccc(-c2c(Cl)ccc(Cl)c2Cl)cc1Cl` [2,3,3',4',6-pentachlorobiphenyl], the “Henry solubility constant Hcp” value under setting [4] was 0.027.

As for `Clc1cc(-c2ccc(Cl)c(Cl)c2Cl)cc(Cl)c1Cl` [2,3,3',4,4',5'-hexachlorobiphenyl], the “Henry solubility constant Hcp” value under setting [4] came out at 0.017.

Turning to `Clc1ccc(-c2cc(Cl)c(Cl)c(Cl)c2Cl)cc1Cl` [2,3,3',4,4',5-hexachlorobiphenyl], the “Henry solubility constant Hcp” value under setting [4] was 0.011.

Take `Clc1ccc(-c2c(Cl)cc(Cl)c(Cl)c2Cl)cc1Cl` [2,3,3',4,4',6-hexachlorobiphenyl]: under setting [4], the “Henry solubility constant Hcp” value was 0.015.

With `Brc1ccc(Oc2cc(Br)c(Br)c(Br)c2Br)cc1` [2,3,4,4',5-pentabromodiphenyl ether], the “Henry solubility constant Hcp” value under setting [6] is 0.88.

Regarding `CSSSC` [2,3,4-trithiapentane], the “Henry solubility constant Hcp” value was determined as 0.021 under setting [1] and 0.014 (reference: Souchon et al. (2004)).

For `Clc1cc2oc3cc(Cl)c(Cl)cc3c2cc1Cl` [2,3,7,8-tetrachlorodibenzofuran], the “Henry solubility constant Hcp” value (reference: Friesen et al. (1993)) turned out to be 0.59.

As for `CCc1ncc(C)nc1CC` [2,3-diethyl-5-methylpyrazine], the “Henry solubility constant Hcp” value under setting [1] was 0.81.

On to `CCC(=O)C(C)=O` [2,3-pentanedione], for which the “Henry solubility constant Hcp” value (reference: Wu et al. (2022b)) stood at 0.13.

`Clc1ccc(-c2cc(Cl)ccc2Cl)cc1` [2,4',5-trichlorobiphenyl]: under setting [4], the “Henry solubility constant Hcp” value came out at 0.049.

In the case of `Brc1ccc(Oc2ccc(Br)cc2Br)cc1` [2,4,4'-tribromodiphenyl ether], the “Henry solubility constant Hcp” value is, setting by setting: under setting [5], 0.18; under setting [6], 0.12; (reference: Long et al. (2017)) 0.16.

The record behind these values is Sander's compilation of Henry's law constants.
